Tests used:
[1] = Displacement of [3H]Spiperone from dopamine D2 like receptor in rat brain homogenates; type: tissue-based
Rattus norvegicus = species on record: Rattus norvegicus; test: Selectivity ratio of Ki for dopamine D1 like receptor in rat brain homogenates to Ki for dopamine D3 receptor in rat brain homogenates; type: tissue-based
D(3) dopamine receptor [2] = biological target: D(3) dopamine receptor (Rattus norvegicus, UniProt P19020); test: Displacement of [3H]-R(+)-7-OHDPAT from dopamine D3 receptor in rat brain homogenates; type: tissue-based
Chain of D(3) dopamine receptor (Rattus norvegicus, UniProt P19020) (P19020 whole entry): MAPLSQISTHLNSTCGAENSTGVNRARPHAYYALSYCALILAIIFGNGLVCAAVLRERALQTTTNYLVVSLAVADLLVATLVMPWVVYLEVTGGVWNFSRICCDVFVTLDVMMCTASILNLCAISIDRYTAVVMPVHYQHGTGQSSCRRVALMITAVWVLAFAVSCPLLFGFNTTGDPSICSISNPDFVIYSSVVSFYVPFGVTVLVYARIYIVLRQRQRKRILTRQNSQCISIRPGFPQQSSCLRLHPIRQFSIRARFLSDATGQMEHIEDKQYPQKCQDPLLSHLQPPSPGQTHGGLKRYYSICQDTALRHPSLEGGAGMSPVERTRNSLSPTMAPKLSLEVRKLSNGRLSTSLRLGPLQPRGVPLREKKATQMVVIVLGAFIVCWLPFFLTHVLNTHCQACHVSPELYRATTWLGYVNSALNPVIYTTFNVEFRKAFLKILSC

[3] = Displacement of [3H]SCH23390 from dopamine D1 like receptor in rat brain homogenates; type: tissue-based
[4] = Selectivity ratio of dopamine D1 like receptor to dopamine D3 receptor
[5] = Selectivity ratio of dopamine D2 receptor to dopamine D3 receptor
D(3) dopamine receptor [6] = biological target: D(3) dopamine receptor (Homo sapiens, UniProt P35462); test: Agonist activity at human dopamine D3 receptor expressed in CHO cells by mitogenesis assay; type: functional, cell-based
Chain of D(3) dopamine receptor (Homo sapiens, UniProt P35462) (P35462 whole entry): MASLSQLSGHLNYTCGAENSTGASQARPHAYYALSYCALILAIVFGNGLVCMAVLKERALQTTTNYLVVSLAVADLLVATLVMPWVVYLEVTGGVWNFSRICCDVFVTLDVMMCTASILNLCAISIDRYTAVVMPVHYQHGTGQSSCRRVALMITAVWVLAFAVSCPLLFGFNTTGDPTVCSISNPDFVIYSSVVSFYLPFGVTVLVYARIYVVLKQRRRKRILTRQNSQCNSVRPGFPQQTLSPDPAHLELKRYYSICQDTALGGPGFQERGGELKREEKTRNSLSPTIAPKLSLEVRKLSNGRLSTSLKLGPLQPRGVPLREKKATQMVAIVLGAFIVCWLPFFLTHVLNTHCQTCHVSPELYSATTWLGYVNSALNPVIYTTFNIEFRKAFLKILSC

Compound | Ki [1] [µM] | Ratio Ki (Rattus norvegicus) | Ki (D(3) dopamine receptor [2]) [µM] | Ki [3] [µM] | Selectivity ratio [4] | Selectivity ratio [5] | EC50 (D(3) dopamine receptor [6]) [µM]
CCCN(CC[C@H]1CC[C@H](NC(=O)c2cccc3ncccc23)CC1)[C@H]1CCc2nc(N)sc2C1 | 0.072 | 27100 | 0.0016 | 44 | – | – | –
CCCN(CCN1CCN(c2ccc(-c3ccccc3)cc2)CC1)[C@H]1CCc2nc(N)sc2C1 | – | – | – | – | > 1000 | 100 | –
CCCN(CC[C@H]1CC[C@H](NC(=O)c2ccc(-c3noc(CC)n3)cc2)CC1)[C@H]1CCc2nc(N)sc2C1 | 0.328 | 8380 | 0.0021 | 17.7 | – | – | –
CCCN(CC[C@H]1CC[C@H](NC(=O)c2cccc(-n3ccnc3)c2)CC1)[C@H]1CCc2nc(N)sc2C1 | 0.032 | 21800 | 0.0011 | 24.7 | – | – | –
CCCN(CC[C@H]1CC[C@H](NC(=O)c2cccc3cnccc23)CC1)[C@H]1CCc2nc(N)sc2C1 | 0.064 | 4500 | 0.0059 | 26.4 | – | – | –
CCCN(CC[C@H]1CC[C@H](NC(=O)c2ccc(-c3noc(C4CC4)n3)cc2)CC1)[C@H]1CCc2nc(N)sc2C1 | 0.633 | 3240 | 0.0035 | 11.4 | – | – | –
O=C(NCCCCN1CCN(c2cccc(Cl)c2Cl)CC1)c1ccc2c(c1)Cc1ccccc1-2 | – | – | – | – | > 1000 | 100 | –
CCCN(CC[C@H]1CC[C@H](NS(=O)(=O)c2ccc(C(C)(C)C)cc2)CC1)[C@H]1CCc2nc(N)sc2C1 | 0.101 | 626 | 0.005 | 3.15 | – | – | –
CCCN[C@H]1CCc2nc(N)sc2C1 [PRAMIPEXOLE] | – | – | – | > 100 | – | – | –
CCCN(CC[C@H]1CC[C@H](NC(=O)/C=C/c2ccc(OC)cc2)CC1)[C@H]1CCc2nc(N)sc2C1 | 0.094 | 1200 | 0.0067 | 8.03 | – | – | –
CCCN(CC[C@H]1CC[C@H](NC(=O)/C=C/c2cccc(F)c2)CC1)[C@H]1CCc2nc(N)sc2C1 | 0.08 | 666 | 0.0099 | 6.61 | – | – | –
CCCN(CC[C@H]1CC[C@H](NC(=O)c2ccc(-c3noc(C)n3)cc2)CC1)[C@H]1CCc2nc(N)sc2C1 | 0.442 | 27000 | 0.0013 | 34.6 | – | – | –
COc1ccccc1N1CCN(CC(O)CCNC(=O)c2cc3ccccc3[nH]2)CC1 (stereo unspecified) | – | – | – | – | > 1000 | 100 | –
CCCN(CC[C@H]1CC[C@H](NC(=O)/C=C/c2ccccc2Cl)CC1)[C@H]1CCc2nc(N)sc2C1 | 0.03 | 4650 | 0.0012 | 5.44 | – | – | –
CCCN(CC[C@H]1CC[C@H](NS(=O)(=O)c2ccc(-c3ccccc3)cc2)CC1)[C@H]1CCc2nc(N)sc2C1 | 0.075 | 44 | 0.041 | 1.8 | – | – | –
CCCN(CC[C@H]1CC[C@H](NS(=O)(=O)c2ccc(C(C)C)cc2)CC1)[C@H]1CCc2nc(N)sc2C1 | 0.133 | 1810 | 0.0045 | 8.15 | – | – | –
O=C(NC/C=C/CN1CCN(c2cccc(Cl)c2Cl)CC1)c1ccc(-c2ccccn2)cc1 | – | – | – | – | > 1000 | 100 | –
CCCN(CC[C@H]1CC[C@H](NS(=O)(=O)c2cccc(C)c2)CC1)[C@H]1CCc2nc(N)sc2C1 | 0.062 | 9470 | 0.00089 | 8.4 | – | – | –
CCCN(CC[C@H]1CC[C@H](NS(=O)(=O)c2cccc(F)c2)CC1)[C@H]1CCc2nc(N)sc2C1 | – | – | 0.00072 | 10.4 | – | – | –
CCCN(CC[C@H]1CC[C@H](NS(=O)(=O)c2ccc(Cl)cc2)CC1)[C@H]1CCc2nc(N)sc2C1 | 0.071 | 8750 | 0.00095 | 8.29 | – | – | –
CCCN(CC[C@H]1CC[C@H](NC(=O)/C=C/c2ccc(F)cc2)CC1)[C@H]1CCc2nc(N)sc2C1 | 0.066 | 4670 | 0.001 | 4.67 | – | – | –
CCCN(CC[C@H]1CC[C@H](NC(=O)c2ccccc2-n2cccn2)CC1)[C@H]1CCc2nc(N)sc2C1 | 0.045 | 23800 | 0.002 | 46.9 | – | – | –
CCCN(CC[C@H]1CC[C@H](NS(=O)(=O)c2cccc3ccccc23)CC1)[C@H]1CCc2nc(N)sc2C1 | 0.031 | 3160 | 0.0015 | 4.67 | – | – | –

Compound | Ki [1] [µM] | Ratio Ki (Rattus norvegicus) | Ki (D(3) dopamine receptor [2]) [µM] | Ki [3] [µM] | Selectivity ratio [4] | Selectivity ratio [5] | EC50 (D(3) dopamine receptor [6]) [µM]
CCCN(CC[C@H]1CC[C@H](NS(=O)(=O)c2cccnc2Cl)CC1)[C@H]1CCc2nc(N)sc2C1 | 0.17 | 46300 | 0.00038 | 17.4 | – | – | 0.0015
CCCN(CC[C@H]1CC[C@H](NC(=O)c2ccc(-n3cncn3)cc2)CC1)[C@H]1CCc2nc(N)sc2C1 | 0.056 | 5960 | 0.0024 | 14 | – | – | –
O=C(NCC[C@@H](O)CN1CCN(c2cccc(Cl)c2Cl)CC1)c1cc2ccccc2[nH]1 | – | – | – | – | > 1000 | 100 | –
CCCN(CC[C@H]1CC[C@H](NC(=O)/C=C/c2ccc(Cl)cc2)CC1)[C@H]1CCc2nc(N)sc2C1 | 0.027 | 1600 | 0.0025 | 4.03 | – | – | –
CCCN(CC[C@H]1CC[C@H](NC(=O)c2cccc(-c3noc(C)n3)c2)CC1)[C@H]1CCc2nc(N)sc2C1 | 0.359 | 13700 | 0.00073 | 9.94 | – | – | 0.0043
CCCN(CC[C@H]1CC[C@H](NC(=O)c2cccc(-c3noc(CC)n3)c2)CC1)[C@H]1CCc2nc(N)sc2C1 | 0.491 | 3450 | 0.0015 | 5 | – | – | –
CCCN(CC[C@H]1CC[C@H](NC(=O)c2ccc3ccccc3n2)CC1)[C@H]1CCc2nc(N)sc2C1 | 0.088 | 6050 | 0.0016 | 11.3 | – | – | –
CCCN(CC[C@H]1CC[C@H](NS(=O)(=O)c2cnccc2Cl)CC1)[C@H]1CCc2nc(N)sc2C1 | – | – | 0.00093 | 10.7 | – | – | –
CCCN(CC[C@H]1CC[C@H](NC(=O)c2ccc(-c3noc(C(C)C)n3)cc2)CC1)[C@H]1CCc2nc(N)sc2C1 | 0.47 | 5370 | 0.002 | 10.9 | – | – | –
CCCN(CC[C@H]1CC[C@H](NC(=O)/C=C/c2cccc(OC)c2)CC1)[C@H]1CCc2nc(N)sc2C1 | 0.122 | 953 | 0.0093 | 8.89 | – | – | –
CCCN(CC[C@H]1CC[C@H](NC(=O)c2ccc(-n3ccnc3)cc2)CC1)[C@H]1CCc2nc(N)sc2C1 | 0.023 | 19900 | 0.0019 | 37.2 | – | – | –
CCCN(CC[C@H]1CC[C@H](NS(=O)(=O)c2ccccc2Cl)CC1)[C@H]1CCc2nc(N)sc2C1 | – | – | 0.00068 | 9.48 | – | – | –
CCCN(CC[C@H]1CC[C@H](NC(=O)/C=C/c2ccccc2OC)CC1)[C@H]1CCc2nc(N)sc2C1 | 0.102 | 983 | 0.0081 | 7.92 | – | – | –
CCCN(CC[C@H]1CC[C@H](NS(=O)(=O)c2ccc(OC)cc2)CC1)[C@H]1CCc2nc(N)sc2C1 | 0.038 | 27500 | 0.00078 | 21.3 | – | – | –
CCCN(CC[C@H]1CC[C@H](NS(=O)(=O)c2cccc(Cl)c2)CC1)[C@H]1CCc2nc(N)sc2C1 | – | – | 0.0011 | 5.55 | – | – | –
CCCN(CC[C@H]1CC[C@H](NS(=O)(=O)c2ccccc2)CC1)[C@H]1CCc2nc(N)sc2C1 | 0.057 | 29700 | 0.00079 | 23.4 | – | – | –
CCCN(CC[C@H]1CC[C@H](NS(=O)(=O)c2ccc3ccccc3c2)CC1)[C@H]1CCc2nc(N)sc2C1 | 0.014 | 2430 | 0.0015 | 3.69 | – | – | –
CCCN(CC[C@H]1CC[C@H](NC(=O)c2cccc(-n3cncn3)c2)CC1)[C@H]1CCc2nc(N)sc2C1 | 0.043 | 19900 | 0.003 | 59.7 | – | – | –
CCCN(CC[C@H]1CC[C@H](NS(=O)(=O)c2ccc(Cl)nc2)CC1)[C@H]1CCc2nc(N)sc2C1 | 0.028 | 12900 | 0.00063 | 8.19 | – | – | –
CCCN(CC[C@H]1CC[C@H](NC(=O)c2ccc(-n3cccn3)cc2)CC1)[C@H]1CCc2nc(N)sc2C1 | 0.052 | 4870 | 0.003 | 14.4 | – | – | –
CCCN(CC[C@H]1CC[C@H](NC(=O)/C=C/c2cccc(Cl)c2)CC1)[C@H]1CCc2nc(N)sc2C1 | 0.052 | 4640 | 0.0012 | 5.77 | – | – | –
CCCN(CC[C@H]1CC[C@H](NC(=O)/C=C/c2ccccc2F)CC1)[C@H]1CCc2nc(N)sc2C1 | 0.092 | 3510 | 0.0029 | 10 | – | – | –
